Literature values in US20060052382A1, “3-Amino-4-phenylbutanoic acid derivatives as dipeptidyl peptidase inhibitors for the treatment or prevention of diabetes” (priority 2002, published 2006).
Each block holds one compound with its values, some of them ahead of it.

Key:
cardiac allograft = conditions: rats; Transplantation, 63: 1495-1500 (1997)
hematopoiesis = conditions: mouse, cyclophosphamide-induced neutropenia; WO 99/56753
DP-IV = biological target: T1, DP-IV (Homo sapiens, UniProt P27487); conditions: plasma
T1 construct: GRF is rapidly degraded in plasma to GRF[3-44]
T1 sequence (P27487 39-766 limits assumed): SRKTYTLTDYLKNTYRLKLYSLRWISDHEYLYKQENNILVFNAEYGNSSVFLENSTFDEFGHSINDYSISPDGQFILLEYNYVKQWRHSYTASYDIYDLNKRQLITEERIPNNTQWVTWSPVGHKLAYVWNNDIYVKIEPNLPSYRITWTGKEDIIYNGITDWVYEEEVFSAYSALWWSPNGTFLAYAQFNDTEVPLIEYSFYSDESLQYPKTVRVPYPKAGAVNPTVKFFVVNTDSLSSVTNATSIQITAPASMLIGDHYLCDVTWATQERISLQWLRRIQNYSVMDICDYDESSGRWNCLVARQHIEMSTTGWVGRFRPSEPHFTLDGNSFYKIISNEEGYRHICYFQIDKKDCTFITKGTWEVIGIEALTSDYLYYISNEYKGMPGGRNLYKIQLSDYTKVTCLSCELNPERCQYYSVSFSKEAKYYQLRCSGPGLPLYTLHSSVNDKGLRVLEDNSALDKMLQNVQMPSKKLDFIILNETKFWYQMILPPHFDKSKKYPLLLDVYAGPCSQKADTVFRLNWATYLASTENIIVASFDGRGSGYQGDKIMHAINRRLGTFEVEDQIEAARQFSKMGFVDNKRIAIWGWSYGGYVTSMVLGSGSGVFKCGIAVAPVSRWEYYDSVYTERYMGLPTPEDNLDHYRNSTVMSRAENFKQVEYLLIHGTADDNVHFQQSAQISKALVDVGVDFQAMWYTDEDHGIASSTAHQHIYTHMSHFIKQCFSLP

Compound: CC(C)N1CCC(c2ccccc2)(c2ccccc2)CC1 [Prodipine, Pro-Pro-diphenyl-phosphonate]
cardiac allograft survival (cardiac allograft): double cardiac allograft survival in rats from day 7 to day 14

Compound: CC(C)[C@H](N)C(=O)N1CCC[C@H]1B(O)O [Val-Boro-Pro]
stimulation of hematopoiesis (hematopoiesis): stimulated hematopoiesis

prevention of GRF degradation to GRF[3-44] (DP-IV): prevented
Compound: diprotin A
